# Where two headings read alike, the source gives them in different places.
# Experiments:
# M. abscessus = test: Kirby-Bauer disk diffusion susceptibility test; type: cell-based, Mycobacterium abscessus; details: M. abscessus; 100 μg/disc; zone of inhibition
# PC3 = test: MTT assay; type: cell-based; details: Homo sapiens, PC-3, 48 hours
# SK-UT-1 = test: MTT assay; type: cell-based; details: Homo sapiens, 48 hours
# N. carnea = test: Kirby-Bauer disk diffusion susceptibility test; type: cell-based, Nocardia carnea; details: N. carnea; 100 μg/disc; zone of inhibition
# [1] = tested on: recombinant herpesvirus FTKGF; test: Fluorescence antiviral assay in Vero cells; type: cell-based, herpes simplex 1 virus; details: 0.01 MOI, 48 hours
# Description: In the antiviral assay a special culture plate for fluorescence assays has been used, cultivated with Vero cells (200,000 cells/ml) and infected with the recombinant herpesvirus FTKGF at 0.01 MOI (Multiplicity of infection). For the standard curve (inhibition curve pattern), increasing concentrations of a known inhibitor of HSV infection, the phosphonoacetic acid (PAA), from 0 to 200 μg/ml, were used. The compound was tested at concentrations of […] over the virus. After 48 hours, the fluorescence intensity of FTKGF (reduction in fluorescence levels) in the plate reader Synergy HT Microplate Reader was measured.
# PBMCs = test: Cellular viability, CellTiter Glo; type: cell-based; details: PBMCs cells
# Description: (§1) All assays for assessing anti-HIV activity were taken in parallel to determine cellular viability of the culture in the presence or absence of different concentrations of the isolated molecule. It was followed exactly the same methodology as in the anti-HIV assay except with the addition of complete DMEM medium instead of supernatant viral, in the same proportion, and the detection of the viability was performed with the viability detection kit CellTiter Glo (Promega), following manufacturer instructions. Viability is directly proportional to the luciferase activity obtained. All data are expressed as percentage relative to a control with DMSO at the same concentration. Antiviral activity and toxicity curves were performed to the compound at different concentrations.
# [2] = Cellular viability, CellTiter Glo; type: cell-based; details: human, read-out: CC50 nM (concentration of drug required to kill 50% of cells)
# Description: as §1
# MT-2 cells = test: Cellular viability, CellTiter Glo; type: cell-based
# Description: as §1
# HIV virus (NL4.3-Ren) = test: microbe, parasite or virus in culture; type: cell-based; details: for Viral replication (%): relative to DMSO control, cells not given
# [3] = tested on: XGF-N (PRG-NIA3 deficient in the envelope glycoprotein gG); type: cell-based, porcine pseudorabies virus (PRV)
# S. aureus = test: Kirby-Bauer disk diffusion susceptibility test; type: cell-based, Staphylococcus aureus; details: S. aureus; 100 μg/disc; zone of inhibition
# [4] = tested on: all species tested (pathogenic bacteria); type: cell-based
# [5] = tested on: HIV virus non-recombinant wild type (NL4.3); test: Inhibition of non-recombinant wild type HIV; type: cell-based; details: Human immunodeficiency virus 1
# HSV-2, strain G = details: compound 2 μM
# A. baumannii = test: Kirby-Bauer disk diffusion susceptibility test; type: cell-based, Acinetobacter baumannii; details: A. baumannii; 100 μg/disc; zone of inhibition
# NCI-H1299 = test: MTT assay; type: cell-based; details: Homo sapiens, 48 hours
# [6] = tested on: equine herpes virus type 1 (EHV-1); test: Viral titer reduction; type: cell-based; details: 2 μM
# B. cereus = test: Kirby-Bauer disk diffusion susceptibility test; type: cell-based, Bacillus cereus; details: B. cereus
# [7] = tested on: FTKGF (deficient in thymidine kinase protein); details: compound 2 μM
# T98G = test: MTT assay; type: cell-based
# Excerpt: This compound has a purple hue.
# All tests are always in triplicate.
# In Table VIII, quantification of the best IC50 is shown (concentration of compound that inhibits 50% of cell growth) using GraphPad Prism program.
# M. chelonae = test: Kirby-Bauer disk diffusion susceptibility test; type: cell-based; details: M. chelonae; 100 μg/disc; zone of inhibition
# S. epidermidis = test: Kirby-Bauer disk diffusion susceptibility test; type: cell-based, Staphylococcus epidermidis; details: S. epidermidis; 100 μg/disc; zone of inhibition
# M. fortuitum = test: Kirby-Bauer disk diffusion susceptibility test; type: cell-based; details: M. fortuitum; 100 μg/disc; zone of inhibition
# CAL33 = test: MTT assay; type: cell-based
# [8] = tested on: HIV virus (NL4.3-Ren) and HIV virus pseudotyped with the envelope of VSV (NL4.3-VSV-Luc); test: Virus entry test, HIV and VSV-pseudotyped HIV in parallel; type: cell-based; details: NL4.3-Ren and NL4.3-VSV-Luc in parallel
# [9] = Cellular viability, CellTiter Glo (Table V, cells not stated); type: cell-based; details: human, relative to DMSO control
# Description: as §1
# MCF7 = test: MTT assay; type: cell-based; details: Homo sapiens, 48 hours
# T. pulmonis = test: Kirby-Bauer disk diffusion susceptibility test; type: cell-based, Tsukamurella pulmonis; details: T. pulmonis; 100 μg/disc; zone of inhibition
structure (smiles),measurement,setting,value
"CCCCCC1=NN(C(=O)CCO)OC(CCCCC)C1 (stereo not shown) [Compound, 1-(4,6-dipentyl-5,6-dihydro-2H-1,2,3-oxadiazin-2-yl)-3-hydroxypropan-1-one]","Activity (mm), 100 μg/disc",M. abscessus,56 mm
same,IC50,PC3,217 nM
same,IC50,SK-UT-1,199 nM
same,"Activity (mm), 100 μg/disc",N. carnea,48-50 mm
same,inhibition at 0.2 µM,[1]; 200 nM,60%
same,inhibition at 0.4 µM,[1]; 400 nM,92%
same,toxicity,PBMCs,only in the highest concentrations tested (5 and 10 μM)
same,CC50,[2]; MT-2 cells,2500 to 5000 nM
same,CC50,[2]; PBMCs,2500 to 5000 nM
same,toxicity,MT-2 cells,only in the highest concentrations tested (5 and 10 μM)
same,Viral replication (%),HIV virus (NL4.3-Ren); 0.19 μM,45%
same,Viral replication (%),HIV virus (NL4.3-Ren); 0.39 μM,14%
same,Viral replication (%),HIV virus (NL4.3-Ren); 0.78 μM,3%
same,Viral replication (%),HIV virus (NL4.3-Ren); 1.56 μM,1%
same,Viral replication (%),HIV virus (NL4.3-Ren); 3.12 μM,0%
same,Viral replication (%),HIV virus (NL4.3-Ren); 6.25 μM,0%
same,Viral replication (%),HIV virus (NL4.3-Ren); 12.5 μM,0%
same,Viral replication (%),HIV virus (NL4.3-Ren); 25 μM,0%
same,Viral replication (%),HIV virus (NL4.3-Ren); 50 μM,0%
same,Viral replication (%),HIV virus (NL4.3-Ren); 100 μM,0%
same,IC50,"HIV virus (NL4.3-Ren); Human immunodeficiency virus 1, MT2, read-out: IC50 nM",243 nM
same,IC50,"HIV virus (NL4.3-Ren); Human immunodeficiency virus 1, PBMC, read-out: IC50 nM",362 nM
same,reduction of the titer,[3],1 logarithm
same,"Activity (mm), 100 μg/disc",S. aureus,20-22 mm
same,kind of antibiotic activity,[4],bactericidal
same,IC50,[5],333 nM
same,reduction of the titer,"HSV-2, strain G",3 logarithms
same,"Activity (mm), 100 μg/disc",A. baumannii,10-12 mm
same,IC50,NCI-H1299,192 nM
same,reduction of the titer,[6],1 logarithm
same,kind of antibiotic activity,B. cereus,bacteriostatic
same,"Activity (mm), 100 μg/disc","B. cereus; 100 μg/disc, zone of inhibition",37-40 mm
same,reduction of the titer,[7],2.5 logarithms
same,concentration at which inhibition is obtained,T98G,50 nM
same,optimal concentration of inhibition,T98G,100 nM
same,IC50,"T98G; Homo sapiens, 48 hours",106 nM
same,"Activity (mm), 100 μg/disc",M. chelonae,63 mm
same,"Activity (mm), 100 μg/disc",S. epidermidis,16-18 mm
same,"Activity (mm), 100 μg/disc",M. fortuitum,44 mm
same,concentration at which inhibition is obtained,CAL33,10 nM
same,optimal concentration of inhibition,CAL33,≥ 50 nM
same,IC50,"CAL33; Homo sapiens, CAL-33, 48 hours",42.8 nM
same,inhibition of HIV and VSV-pseudotyped HIV (dependence on virus entry),[8],inhibited both viruses with the same potency
same,viability at 0.19 µM,[9]; 0.19 μM,114%
same,viability at 0.39 µM,[9]; 0.39 μM,113%
same,viability at 0.78 µM,[9]; 0.78 μM,109%
same,viability at 1.56 µM,[9]; 1.56 μM,96%
same,viability at 3.12 µM,[9]; 3.12 μM,78%
same,viability at 6.25 µM,[9]; 6.25 μM,31%
same,viability at 12.5 µM,[9]; 12.5 μM,7%
same,viability at 25 µM,[9]; 25 μM,4%
same,viability at 50 µM,[9]; 50 μM,2%
same,viability at 100 µM,[9]; 100 μM,0%
same,IC50,MCF7,127 nM
same,"Activity (mm), 100 μg/disc",T. pulmonis,49-52 mm

# Source: patent publication US11241440B2, “Dihydrooxadiazine compounds for treating infections and cancer” (VALORALIA I MÁS D, SL, priority 2016, dated 2022)
